The results in this text go back to ChEMBL document CHEMBL1806440, “N-β-glycosyl sulfamides are selective inhibitors of the cancer associated carbonic anhydrase isoforms IX and XII” (Bioorg Med Chem Lett, 2011).

The target in this experiment is Carbonic anhydrase 9 (Homo sapiens, UniProt Q16790).

For the molecule `CC(=O)OC[C@H]1O[C@@H](NS(N)(=O)=O)C[C@@H](OC(C)=O)[C@@H]1OC(C)=O`, the inhibition constant (Ki) was 13 nM. In other words, the double-digit nanomolar range.

Regarding `C[C@H]1O[C@@H](NS(N)(=O)=O)[C@@H](O)[C@@H](O)[C@@H]1O`, the affinity, expressed as Ki, was 3140 nM.

`CC(=O)OC[C@H]1O[C@@H](NS(N)(=O)=O)[C@H](OC(C)=O)[C@@H](OC(C)=O)[C@H]1OC(C)=O` came in with an inhibition constant Ki of 7.2 nM. This Ki lies about 440-fold lower than the previous one.

The molecule `CC(=O)OC[C@H]1O[C@@H](NS(N)(=O)=O)[C@@H](OC(C)=O)[C@@H](OC(C)=O)[C@@H]1OC(C)=O` showed a Ki of 5 nM.

In turn, `CC(=O)OC[C@H]1O[C@@H](NS(N)(=O)=O)[C@H](OC(C)=O)[C@@H](OC(C)=O)[C@@H]1OC(C)=O` displayed a Ki of 7.7 nM. Against the preceding molecule, the Ki is about 1.5-fold higher.

With `CC(=O)OC[C@H]1O[C@@H](NS(N)(=O)=O)C[C@@H](OC(C)=O)[C@H]1OC(C)=O`, the Ki came out at 16 nM.
